According to ChEMBL document CHEMBL5331072, “Development of potent and selective FAAH inhibitors with improved drug-like properties as potential tools to treat neuroinflammatory conditions” (Eur J Med Chem, 2023):
≈ marks a conversion by molar mass, not a printed value. Calls of active or inactive are those of the source. No cut-off for these calls is given here.

Experiments:
[1] = Cardiotoxicity in Langendorff-perfused Wistar rat heart assessed as effect on heart rate at 30 uM by ECG analysis (reference value: 263.5+/-8.2 bpm); type: toxicity, tissue-based
[2] = Cardiotoxicity in Langendorff-perfused Wistar rat heart assessed as effect on PQ interval time at 10 uM by ECG analysis (Rvb =40.8+/-2.3 milliseconds); type: toxicity, tissue-based
1321N1 [3] = assay: Cytotoxicity against human 1321N1 cells assessed as inhibition of cell growth at 100 nM measured for 24 hrs by MTT assay; type: functional; design: scale not given: the % may be the effect or the level left
[4] = Cardiotoxicity in Langendorff-perfused Wistar rat heart assessed as effect on QRS interval time at 10 uM by ECG analysis (Rvb =13.6+/-0.7 milliseconds); type: toxicity, tissue-based
1321N1 [5] = assay: Cytotoxicity against human 1321N1 cells assessed as inhibition of cell growth at 10 nM measured for 24 hrs by MTT assay; type: functional; design: scale not given: the % may be the effect or the level left
[6] = Cardiotoxicity in Langendorff-perfused Wistar rat heart assessed as effect on QRS interval time at 30 uM by ECG analysis (Rvb =13.6+/-0.7 milliseconds); type: toxicity, tissue-based
[7] = Cardiotoxicity in Langendorff-perfused Wistar rat heart assessed as effect on heart rate at 0.3 uM by ECG analysis (reference value: 263.5+/-8.2 bpm); type: toxicity, tissue-based
[8] = Cardiotoxicity in Langendorff-perfused Wistar rat heart assessed as effect on PQ interval time at 0.3 uM by ECG analysis (Rvb =40.8+/-2.3 milliseconds); type: toxicity, tissue-based
[9] = biological target: T1, Fatty-acid amide hydrolase 1 (Homo sapiens, UniProt O00519); assay: Inhibition of human recombinant FAAH using AMC-AA as substrate preincubated for 30 mins followed by substrate addition and measured after 30 mins by multimode plate reader analysis
T1 sequence (O00519 whole entry): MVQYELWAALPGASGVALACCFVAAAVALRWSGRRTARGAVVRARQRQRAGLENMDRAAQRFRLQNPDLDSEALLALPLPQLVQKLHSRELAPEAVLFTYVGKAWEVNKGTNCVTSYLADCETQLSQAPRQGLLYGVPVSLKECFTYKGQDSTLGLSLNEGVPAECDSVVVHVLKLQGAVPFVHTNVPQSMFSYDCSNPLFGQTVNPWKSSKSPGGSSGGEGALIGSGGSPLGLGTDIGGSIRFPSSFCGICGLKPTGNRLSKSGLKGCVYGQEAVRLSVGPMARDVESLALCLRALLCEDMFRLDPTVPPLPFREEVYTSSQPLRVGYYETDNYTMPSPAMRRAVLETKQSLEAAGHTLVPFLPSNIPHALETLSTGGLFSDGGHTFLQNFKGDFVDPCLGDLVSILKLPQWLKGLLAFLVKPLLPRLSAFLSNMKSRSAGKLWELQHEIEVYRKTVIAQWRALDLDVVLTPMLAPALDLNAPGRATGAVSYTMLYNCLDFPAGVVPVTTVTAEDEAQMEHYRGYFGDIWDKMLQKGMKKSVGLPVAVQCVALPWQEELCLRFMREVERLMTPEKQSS

[10] = Neurotoxicity against Wistar rat Hippocampus assessed as cell survival at 0.3 to 100 nM measured for 96 hrs by densitometric analysis; type: toxicity, tissue-based; conditions: 0.1 µM, dose 0.3-100 nM
Hippocampus [11] = assay: Neuroprotective activity against Wistar rat Hippocampus assessed as reduction in LPS/IFN-gamma induced PI uptake in CA1 region at 3 to 1000 nM measured for 96 hrs; type: functional, tissue-based; conditions: dose 3-1000 nM
[12] = Solubility of compound at pH 7.4 measured for 24 hrs; type: physicochemical; conditions: buffer
[13] = Chemical stability of the compound at pH 3 measured for 24 hrs by HPLC analysis; type: physicochemical; conditions: buffer, read-out: Stability
[14] = Cardiotoxicity in Langendorff-perfused Wistar rat heart assessed as effect on PQ interval time at 30 uM by ECG analysis (Rvb =40.8+/-2.3 milliseconds); type: toxicity, tissue-based
[15] = Cardiotoxicity in Langendorff-perfused Wistar rat heart assessed as effect on QTc interval time at 0.3 uM by ECG analysis (Rvb =72.1+/-1.4 milliseconds); type: toxicity, tissue-based
[16] = Chemical stability of the compound at pH 7.4 measured for 24 hrs by HPLC analysis; type: physicochemical; conditions: buffer, read-out: Stability
[17] = Cardiotoxicity in Langendorff-perfused Wistar rat heart assessed as effect on QTc interval time at 30 uM by ECG analysis (Rvb =72.1+/-1.4 milliseconds); type: toxicity, tissue-based
1321N1 [18] = assay: Cytotoxicity against human 1321N1 cells assessed as inhibition of cell growth at 30 uM measured for 24 hrs by MTT assay; type: functional; design: scale not given: the % may be the effect or the level left
1321N1 [19] = assay: Cytotoxicity against human 1321N1 cells assessed as inhibition of cell growth at 1 uM measured for 24 hrs by MTT assay; type: functional; design: scale not given: the % may be the effect or the level left
1321N1 [20] = assay: Cytotoxicity against human 1321N1 cells assessed as inhibition of cell growth at 10 uM measured for 24 hrs by MTT assay; type: functional; design: scale not given: the % may be the effect or the level left
Monoglyceride lipase = biological target: T2, Monoglyceride lipase (Homo sapiens, UniProt Q99685); assay: Inhibition of human recombinant MAGL using 7-hydroxycoumarinyl arachidonate as substrate preincubated for 30 mins followed by substrate addition and measured after 30 mins by multimode plate reader analysis
T2 sequence (Q99685 whole entry): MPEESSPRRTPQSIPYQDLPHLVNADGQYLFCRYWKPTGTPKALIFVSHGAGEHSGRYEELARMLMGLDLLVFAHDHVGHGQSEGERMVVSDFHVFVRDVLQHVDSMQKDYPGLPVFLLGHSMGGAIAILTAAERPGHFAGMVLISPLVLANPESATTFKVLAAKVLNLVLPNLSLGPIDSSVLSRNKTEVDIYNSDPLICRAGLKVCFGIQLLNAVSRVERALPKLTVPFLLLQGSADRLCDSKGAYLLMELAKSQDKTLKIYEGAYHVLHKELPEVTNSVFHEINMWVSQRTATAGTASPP

[21] = Cardiotoxicity in Langendorff-perfused Wistar rat heart assessed as effect on RR time at 10 uM by ECG analysis (reference value: 230+/-8.7 milliseconds); type: toxicity, tissue-based
[22] = Cardiotoxicity in Langendorff-perfused Wistar rat heart assessed as effect on QTc interval time at 10 uM by ECG analysis (Rvb =72.1+/-1.4 milliseconds); type: toxicity, tissue-based
[23] = Cardiotoxicity in Langendorff-perfused Wistar rat heart assessed as effect on heart rate at 1 uM by ECG analysis (reference value: 263.5+/-8.2 bpm); type: toxicity, tissue-based
[24] = Cardiotoxicity in Langendorff-perfused Wistar rat heart assessed as effect on QRS interval time at 0.3 uM by ECG analysis (Rvb =13.6+/-0.7 milliseconds); type: toxicity, tissue-based
[25] = Cardiotoxicity in Langendorff-perfused Wistar rat heart assessed as effect on heart rate at 10 uM by ECG analysis (reference value: 263.5+/-8.2 bpm); type: toxicity, tissue-based
Hippocampus [26] = assay: Neuroprotective activity against Wistar rat Hippocampus assessed as reduction in LPS/IFN-gamma induced PI uptake in CA1 region at 30 to 100 nM measured for 96 hrs; type: functional, tissue-based; conditions: dose 30-100 nM
[27] = Solubility of compound at pH 3 measured for 24 hrs; type: physicochemical; conditions: buffer
[28] = Cardiotoxicity in Langendorff-perfused Wistar rat heart assessed as effect on QRS interval time at 1 uM by ECG analysis (Rvb =13.6+/-0.7 milliseconds); type: toxicity, tissue-based
[29] = Cytotoxicity against mouse NIH3T3 cells assessed as inhibition of cell growth measured for 24 hrs by neutral red uptake assay; type: toxicity, cell-based
[30] = Cardiotoxicity in Langendorff-perfused Wistar rat heart assessed as effect on RR time at 0.3 uM by ECG analysis (reference value: 230+/-8.7 milliseconds); type: toxicity, tissue-based
[31] = Cardiotoxicity in Langendorff-perfused Wistar rat heart assessed as effect on QTc interval time at 1 uM by ECG analysis (Rvb =72.1+/-1.4 milliseconds); type: toxicity, tissue-based
1321N1 [32] = assay: Antiinflammatory activity against human 1321N1 cells assessed as reduction in TBHP-induced ROS production at 100 nM incubated for 24 hrs by CellROX green reagent based flow cytometry assay; type: functional, cell-based
[33] = Cardiotoxicity in Langendorff-perfused Wistar rat heart assessed as effect on RR time at 1 uM by ECG analysis (reference value: 230+/-8.7 milliseconds); type: toxicity, tissue-based
[34] = Cardiotoxicity in Langendorff-perfused Wistar rat heart assessed as effect on RR time at 30 uM by ECG analysis (reference value: 230+/-8.7 milliseconds); type: toxicity, tissue-based
[35] = Cardiotoxicity in Langendorff-perfused Wistar rat heart assessed as effect on PQ interval time at 1 uM by ECG analysis (Rvb =40.8+/-2.3 milliseconds); type: toxicity, tissue-based
1321N1 [36] = assay: Antiinflammatory activity against human 1321N1 cells assessed as reduction in TBHP-induced ROS production at 1 uM incubated for 24 hrs by CellROX green reagent based flow cytometry assay; type: functional, cell-based

**Q.** Which results are given for `NC(=O)c1ccn(-c2cccc(OC(=O)N3CCN(CCCc4ccccc4)CC3)c2)c1`?
**A.** Activity [1]: 190.2 bpm; Time [2]: 41.2 ms; Activity (1321N1 [3]): 99.5%; Time [4]: 14 ms; Activity (1321N1 [5]): 100.5%; Time [6]: 14.6 ms; Activity [7]: 270 bpm; Time [8]: 39.2 ms; IC50 [9]: 0.0101 µM; Activity [10]: Non-Toxic; Activity (Hippocampus [11]): Active; solubility at 24 h [12]: 42 µM (≈ 18.2 µg/mL); remaining at 24 h [13]: > 99%; Time [14]: 54.8 ms; Time [15]: 70.6 ms; remaining at 24 h [16]: > 99%; Time [17]: 73.5 ms; Activity (1321N1 [18]): 101.5%; Activity (1321N1 [19]): 100.3%; Activity (1321N1 [20]): 100%; IC50 (Monoglyceride lipase): > 10 µM; Time [21]: 229.8 ms; Time [22]: 71 ms; Activity [23]: 273 bpm; Time [24]: 13.8 ms; Activity [25]: 263.8 bpm; Activity (Hippocampus [26]): Active; solubility at 24 h [27]: 228 µM (≈ 98.6 µg/mL); Time [28]: 13.8 ms; IC50 at 24 h [29]: 46 µM; Time [30]: 223.8 ms; Time [31]: 70.6 ms; Activity (1321N1 [32]): Active; Time [33]: 220.2 ms; Time [34]: 286.4 ms; Time [35]: 40.6 ms; Activity (1321N1 [36]): Active
